Drawing on ChEMBL document CHEMBL1275444, “Fitness trade-offs in blaTEM evolution” (2008), this text covers kcat/Km and inhibition for two compounds.

Test [1] has as its system Escherichia coli.
Description: Ratio of Kcat to Km for Escherichia coli Beta-Lactamase TEM-12
Test [2] concerns Escherichia coli. Nature of the test: Antibacterial activity against Escherichia coli TP1 harboring pBR322 carrying TEM-12 assessed as inhibition of bacterial growth at <=16 ug/ml after 18 hrs. Type of test: functional, organism-based.
Test [3] relates to Escherichia coli. Kind of test: Antibacterial activity against Escherichia coli TP1 harboring pBR322 carrying TEM-10 assessed as inhibition of bacterial growth at >64 ug/ml after 18 hrs. The class given is functional, organism-based.

Calls of active or inactive are those of the source. The rule behind the calls is not given here.

Regarding `CC1(C)S[C@@H]2[C@H](NC(=O)[C@H](N)c3ccccc3)C(=O)N2[C@H]1C(=O)O`, in the test with Escherichia coli [1], the kcat/Km amounted to 4.2 ×10⁷ /M/s. For the compound `CC(C)(O/N=C(\C(=O)N[C@@H]1C(=O)N2C(C(=O)[O-])=C(C[n+]3ccccc3)CS[C@H]12)c1csc(N)n1)C(=O)O`, in the test on Escherichia coli [2], the inhibition result is “inactive”. Besides, the inhibition entry in the test on Escherichia coli [3] was “Active”.
